Test results as given in patent publication US9808470B2, “Estrogenic components for use in the treatment of neurological disorders” (UNIVERSITE DE LIEGE, priority 2012, dated 2017).

Experiments:
[1] = tested on: glial fibrillary acidic protein (GFAP); assay: Ex.8 therapeutic HIE rat model: blood serum GFAP ELISA; assay type: in vivo; conditions: 10 mg/kg/day E4, PND14
Description: (§1) To study the therapeutic effect of estetrol, newborn rat pups were assigned to one of the following 14 groups at postnatal day 7 (FIG. 23(B)): Sham group (n=12), Vehicle (n=15), 5 mg/kg/day E4 (n=11), 10 mg/kg/day E4 (n=11), 5 mg/kg/day E4+1.6 mg/kg/day PROG (n=11), 10 mg/kg/day E4+1.6 mg/kg/day PROG (n=11), 5 mg/kg/day E4+16 mg/kg/day PROG (n=11), 10 mg/kg/day E4+16 mg/kg/day PROG (n=13), 5 mg/kg/day E4+136 ng//kg/day E2 (n=11), 10 mg/kg/day E4+136 ng/kg/day E2 (n=11), 5 mg/kg/day E4+1.6 mg/kg/day PROG+136 ng/kg/day E2 (n=12), 10 mg/kg/day E4+1.6 mg/kg/day PROG+136 ng/kg/day E2 (n=11), 5 mg/kg/day E4+16 mg/kg/day PROG+136 ng/kg/day E2 (n=11), 10 mg/kg/day E4+16 mg/kg/day PROG+136 ng/kg/day (n=12) groups. […] After surgery, the pups were returned to their dams and allowed to recover for 1 hour. The pups were then placed in a humidified hypoxic in vivo cabinet (CoyLab). Hypoxia was produced by the inhalation of 11%-8% of oxygen balanced by nitrogen at decreased concentration of oxygen for 20 minutes, followed by inhalation of 8% oxygen and 92% nitrogen at constant concentration for 35 minutes. All the manipulations were performed at 37° C. Upon retrieval from the hypoxia chamber the rat pups were injected ip once either by vehicle (vehicle group) or by in accordance to the group assignment. […]

[2] = tested on: Microtubule-associated protein 2 (MAP2); assay: Ex.8 therapeutic HIE rat model: MAP2 staining; assay type: in vivo
Description: as §1, with “(CoyLab).” for “(CoyLab). Hypoxia was produced by the inhalation of 11%-8% of oxygen balanced by nitrogen at decreased concentration of oxygen for 20 minutes, followed by inhalation of 8% oxygen and 92% nitrogen at constant concentration for 35 minutes. All the manipulations were performed at 37° C. Upon retrieval from the hypoxia chamber the rat pups were injected ip once either by vehicle (vehicle group) or by in accordance to the group assignment.”
The brain sections were processed for immunohistochemical detection of neuronal cytoskeletal disruption. […] Samples were analyzed with the aid of an image scanner (Nanozoomer Virtual Microscopy, Hamamatsu, Tokyo, Japan) and the ImageJ software (NIH, US). The positive areas in the ipsilateral and contralateral hemispheres were measured. The ratio of the MAP2 positive areas was calculated as the MAP2 positive area of the ipsilateral hemisphere divided by the MAP2 positive area of the contralateral hemisphere. […]

[3] = tested on: glial fibrillary acidic protein (GFAP); assay: Ex.8 neuroprotective HIE rat model: blood serum GFAP ELISA; assay type: in vivo
Description: Newborn rat pups were assigned to one of the following 14 groups from postnatal day 4 (FIG. 23(A)): Sham group (n=12), Vehicle group (n=17), 5 mg/kg/day E4 (n=13), 10 mg/kg/day E4 (n=10), 5 mg/kg/day E4+1.6 mg/kg/day PROG (n=11), 10 mg/kg/day E4+1.6 mg/kg/day PROG (n=11), 5 mg/kg/day E4+16 mg/kg/day PROG (n=11), 10 mg/kg/day E4+16 mg/kg/day PROG (n=11), 5 mg/kg/day E4+136 ng//kg/day E2 (n=11), 10 mg/kg/day E4+136 ng/kg/day E2 (n=11), 5 mg/kg/day E4+1.6 mg/kg/day PROG+136 ng/kg/day (n=13) E2, 10 mg/kg/day E4+1.6 mg/kg/day PROG+136 ng/kg/day E2 (n=16), 5 mg/kg/day E4+16 mg/kg/day PROG+136 ng/kg/day E2 (n=11), 10 mg/kg/day E4+16 mg/kg/day PROG+136 ng/kg/day groups (n=13). Intraperitoneal injections of the pups from study groups were performed from postnatal day 4 to postnatal day 7 inclusively. At day 7, 30 minutes after last injection, animals were anesthetized with isoflurane (induction, 3.0%; maintenance, 1.5%), and the rat pups from vehicle and all the other groups, except the sham group, passed through surgery encompassing left common carotid artery double ligation and cut. After the procedure, the pups were returned to their dams and were allowed to recover for 1 hour. The pups were then placed in the humidified hypoxic in vivo cabinet (CoyLab, Grass Lake, Mich., USA). […]

MCF-7 cells = conditions: compared to E2; cited from earlier work

Q: With `C[C@]12CC[C@@H]3c4ccc(O)cc4CC[C@H]3[C@@H]1[C@@H](O)[C@@H](O)[C@@H]2O` [E4, 1,3,5(10)-estratrien-3,15α,16α,17β-tetrol] as the compound, how does the “GFAP protein concentration in blood serum” value [1] read?
A: The value was 10806.52 ± 1015.19 pg/mL.

Q: What about the “MAP-2 positive area ratio” value ([2]; 5 mg/kg/day E4) of the same compound?
A: Its value is 0.98±0.02.

Q: And the “MAP-2 positive area ratio” value ([2]; 10 mg/kg/day E4)?
A: Its value is 0.97±0.04.

Q: What about the “concentration of GFAP in blood serum” value ([3]; 5 mg/kg/day, PND14) of the same compound?
A: Its value is 6220.49 ± 1763.17 pg/mL.

Q: What about the “concentration of GFAP in blood serum” value ([3]; 10 mg/kg/day E4, PND14) of the same compound?
A: Its value is 12413.45 ± 2243.05 pg·mL.

Q: And the “estrogenic activity in growth promotion of MCF-7 cells” value (MCF-7 cells)?
A: The value was “weak estrogen”.
